pIC50: −log10 of the molar value.
Experiments:
CRBN/DDB1 = CRBN/DDB1 (Homo sapiens, UniProt Q96SW2); assay: HTRF binding assay (displacement of Cy5-thalidomide probe from CRBN/DDB1); conditions: CRBN/DDB1 2.5 nM, Cy5-Thalidomide 100 nM, 30 min; geometric mean; read-out: HTRF_Thali_Disp_DR_geo_IC50
Text: Binding of test compounds to CRBN/DDB1 was monitored in an HTRF assay using 1-[5-({2-[2-(2-{[2-(2,6-dioxopiperidin-3-yl)-1,3-dioxo-2,3-dihydro-1H-isoindol-4-yl]oxy}acetamido)ethoxy]ethyl}carbamoyl)pentyl]-3,3-dimethyl-2-[(1E,3E)-5-[(2E)-1,3,3-trimethyl-5-sulfo-2,3-dihydro-1H-indol-2-ylidene]penta-1,3-dien-1-yl]-3H-indol-1-ium-5-sulfonate as a fluorescent probe. In this assay, compounds displace the fluorescently labeled thalidomide-based probe bound to CRBN and fluorescence is monitored with increasing compound concentration. Assays were conducted in Greiner white 384 well HiBase plates (Cat. No 784075-25) in 10 μL total volume. A one pot detection solution of CRBN/DDB1 (2.5 nM), anti-His Terbium Cryptate Gold (1×, PerkinElmer Cat. #: 61HI2TLB), and Cy5-Thalidomide (100 nM, Tenova Cat.: T52461) was prepared in 20 mM HEPES, 20 mM NaCl, 0.2 mM TCEP, 0.2 mM EDTA, and 0.005% Tween20 was dispensed to each assay plate. Test compounds were stored in dry, ambient temperatures at 10 mM. A 10-point, 1:3 dilution series was prepared from 10 mM stock concentrations in Echo-compatible LDV plates. 10 nL of each compound dilution series was dispensed into assays wells using an Echo 650 (Labcyte inc. USA). 10 nL of 10 mM lenalidomide (Selleckchem Cat no. S1029) was transferred into the active-control wells for the assay and 10 nL of DMSO was transferred into the negative control wells. The assay was then allowed to incubate for 30 min at ambient temperature after transferring the test compounds. Plate measurements were taken on a Pherastar FSX (BMG Labtech, Germany) using the HTRF Red filter (Ex. 337 nm, em1: 620 nm, em2: 665 nm) (Flashes: 50, Integration time: 60-400 μs, Z-height: 10 mm, Ratio-multiplier: 10,000). Analysis, HTRF ratio and IC50 values were derived using KNIME analytics (KNIME Zurich) transformation and fitting within Collaborative Drug Discovery (Collaborative Drug Discovery USA) using a 4-parameter logistic fit. HTRF ratio calculation was performed using the following formula: […]
where Y represents the HTRF ratio response (as defined previously), X the compound concentration in μM, Ymin the minimum response plateau, Ymax the maximum response plateau, IC50 the concentration of agonist that gives a response half way between Ymin and Ymax and HillSlope the steepness of the family of curves. No fitting model constraints was applied on Ymin, or Ymax whilst IC50>0 and −0.5>HillSlope>−3
Ki values were derived from the geometric mean of the IC50 values using the Cheng-Prusoff transformation:
where [L] represents the concentration of fluorescent probe in μM, Kd the affinity (binding constant) of the fluorescent probe in units of μM and IC50 the concentration of agonist that gives a response halfway between Ymin and Ymax (as described in 1.2.1)
Analysis and IC50 values were derived using KNIME analytics (KNIME, Zurich) transformation and fitting within Collaborative Drug Discovery (Collaborative Drug Discovery, USA) as described in 1.2.1. Ki values were derived from the geometric mean of the IC50 values using the Cheng-Prusoff transformation as described in 2.2.2. Data was visualized in GraphPad Prism 8.1.2 (GraphPad, USA) and reported as mean and standard deviation. Microsoft Office Excel 2012 (Redmond, WA) was used for calculation of mean and standard deviation.
IC50 data are reported in Table 3 for compounds in Table 1. In Table 3 below, According to the code, A represents a IC50 value of ≤0.1 μM, B represents a IC50 value>0.1 μM and ≤1 μM, C represents an IC50 value>1 μM.

CK1α = target: T1, CK1α (Homo sapiens, UniProt P48729); assay: CK1α NanoBit Assay (HiBiT-tagged CSNK1A1, HEK293 clonal lines); assay type: cell-based; conditions: HEK293 HiBiT-CSNK1A1/LgBiT cells, 24 h incubation
T1 construct: HEK293 clonal lines with CRISPR KI HiBiT tag on CSNK1A1
T1 sequence (P48729 whole entry): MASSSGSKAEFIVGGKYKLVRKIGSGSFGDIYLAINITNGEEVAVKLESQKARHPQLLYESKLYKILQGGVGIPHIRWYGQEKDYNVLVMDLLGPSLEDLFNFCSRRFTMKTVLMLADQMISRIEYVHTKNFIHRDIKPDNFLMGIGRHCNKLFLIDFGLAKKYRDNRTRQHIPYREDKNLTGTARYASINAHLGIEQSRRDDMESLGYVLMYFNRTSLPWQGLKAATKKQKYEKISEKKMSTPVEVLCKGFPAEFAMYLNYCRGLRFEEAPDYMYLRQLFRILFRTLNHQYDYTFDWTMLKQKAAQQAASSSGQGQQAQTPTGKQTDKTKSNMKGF
T1 sequence (Q96SW2 whole entry, further chain): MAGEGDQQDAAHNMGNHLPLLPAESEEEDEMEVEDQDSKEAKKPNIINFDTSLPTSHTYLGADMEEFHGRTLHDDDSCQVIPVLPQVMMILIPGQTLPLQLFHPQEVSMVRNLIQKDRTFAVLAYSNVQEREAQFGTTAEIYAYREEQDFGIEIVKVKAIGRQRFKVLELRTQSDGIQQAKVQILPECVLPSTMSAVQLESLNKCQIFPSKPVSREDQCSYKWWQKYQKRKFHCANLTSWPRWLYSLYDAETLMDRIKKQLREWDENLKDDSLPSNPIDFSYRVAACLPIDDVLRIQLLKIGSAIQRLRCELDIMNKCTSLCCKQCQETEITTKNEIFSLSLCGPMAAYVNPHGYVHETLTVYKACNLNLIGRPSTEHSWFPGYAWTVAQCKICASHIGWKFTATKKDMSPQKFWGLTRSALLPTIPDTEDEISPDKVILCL
T1 sequence (Q16531 2-1140 partner limits assumed): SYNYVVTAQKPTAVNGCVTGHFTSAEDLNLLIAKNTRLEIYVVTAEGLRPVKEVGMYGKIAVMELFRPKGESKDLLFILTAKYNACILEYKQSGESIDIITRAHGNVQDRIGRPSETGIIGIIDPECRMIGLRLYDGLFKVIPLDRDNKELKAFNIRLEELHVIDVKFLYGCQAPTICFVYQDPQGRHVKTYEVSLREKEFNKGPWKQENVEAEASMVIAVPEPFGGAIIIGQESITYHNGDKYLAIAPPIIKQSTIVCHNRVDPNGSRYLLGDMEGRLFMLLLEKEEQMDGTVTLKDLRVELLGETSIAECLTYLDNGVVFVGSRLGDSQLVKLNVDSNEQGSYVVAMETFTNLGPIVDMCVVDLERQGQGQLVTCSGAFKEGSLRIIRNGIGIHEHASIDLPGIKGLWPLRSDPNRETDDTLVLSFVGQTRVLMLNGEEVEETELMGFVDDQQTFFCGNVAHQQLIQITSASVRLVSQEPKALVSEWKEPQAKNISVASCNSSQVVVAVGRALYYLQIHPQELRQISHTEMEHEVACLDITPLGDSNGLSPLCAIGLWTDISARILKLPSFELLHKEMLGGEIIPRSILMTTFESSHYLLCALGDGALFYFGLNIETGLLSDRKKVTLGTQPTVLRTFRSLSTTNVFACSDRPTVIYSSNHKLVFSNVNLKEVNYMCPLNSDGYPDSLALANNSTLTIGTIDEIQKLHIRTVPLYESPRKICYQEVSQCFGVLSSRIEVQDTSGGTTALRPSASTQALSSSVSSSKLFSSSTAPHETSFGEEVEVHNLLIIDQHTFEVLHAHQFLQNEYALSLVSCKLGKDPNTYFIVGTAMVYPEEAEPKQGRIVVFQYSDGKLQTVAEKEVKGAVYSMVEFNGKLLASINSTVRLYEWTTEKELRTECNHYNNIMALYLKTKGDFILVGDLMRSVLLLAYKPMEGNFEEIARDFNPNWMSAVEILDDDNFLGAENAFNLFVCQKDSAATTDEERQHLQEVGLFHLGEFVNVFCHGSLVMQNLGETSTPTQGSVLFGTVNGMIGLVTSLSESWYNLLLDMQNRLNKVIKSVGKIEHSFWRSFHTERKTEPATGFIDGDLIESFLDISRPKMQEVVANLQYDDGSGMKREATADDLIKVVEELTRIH
Procedure, shortened: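 HEK293 clones carrying a CRISPR knock-in HiBiT tag on CSNK1A1 and stably expressing LgBiT are treated with compound for 24 hours at 37° C, 5% CO2, then read by luminescence. Response is normalized as 100*(S−N)/(P−N) against plate negative and positive controls, and DC50 values are derived.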

CRBN/DDB1, sequence (Q96SW2 whole entry, species assumed): as the sequence (Q96SW2 whole entry, further chain) above
CRBN/DDB1, sequence (Q16531 whole entry partner, species assumed): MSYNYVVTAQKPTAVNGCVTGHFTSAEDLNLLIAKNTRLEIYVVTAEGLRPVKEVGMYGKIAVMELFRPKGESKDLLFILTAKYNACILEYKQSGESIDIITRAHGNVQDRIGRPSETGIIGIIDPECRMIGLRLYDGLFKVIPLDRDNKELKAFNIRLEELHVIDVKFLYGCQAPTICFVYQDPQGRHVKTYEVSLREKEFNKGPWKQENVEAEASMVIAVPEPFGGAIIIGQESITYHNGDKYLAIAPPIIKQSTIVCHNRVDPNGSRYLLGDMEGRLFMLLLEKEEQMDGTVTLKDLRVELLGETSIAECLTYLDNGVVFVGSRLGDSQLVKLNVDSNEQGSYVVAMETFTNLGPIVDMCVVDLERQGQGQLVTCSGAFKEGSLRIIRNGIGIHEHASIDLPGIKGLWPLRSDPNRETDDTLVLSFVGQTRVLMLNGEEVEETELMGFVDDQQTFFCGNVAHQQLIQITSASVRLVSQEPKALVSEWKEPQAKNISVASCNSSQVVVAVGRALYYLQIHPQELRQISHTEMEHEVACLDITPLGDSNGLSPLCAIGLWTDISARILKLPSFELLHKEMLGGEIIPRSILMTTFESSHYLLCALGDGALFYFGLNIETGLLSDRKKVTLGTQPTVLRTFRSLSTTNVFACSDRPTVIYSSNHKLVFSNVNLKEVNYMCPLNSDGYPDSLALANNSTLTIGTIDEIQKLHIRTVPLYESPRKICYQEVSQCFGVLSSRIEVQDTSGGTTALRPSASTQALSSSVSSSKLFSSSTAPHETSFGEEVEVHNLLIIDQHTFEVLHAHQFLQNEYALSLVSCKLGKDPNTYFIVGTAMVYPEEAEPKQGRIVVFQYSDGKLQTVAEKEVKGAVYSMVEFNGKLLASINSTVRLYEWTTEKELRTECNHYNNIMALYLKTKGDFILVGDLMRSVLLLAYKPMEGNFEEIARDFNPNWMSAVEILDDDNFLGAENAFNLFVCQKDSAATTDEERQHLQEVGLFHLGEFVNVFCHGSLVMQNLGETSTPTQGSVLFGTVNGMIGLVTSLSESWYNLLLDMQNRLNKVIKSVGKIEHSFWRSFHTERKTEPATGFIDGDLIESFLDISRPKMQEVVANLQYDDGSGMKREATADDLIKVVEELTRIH

Structure (SMILES)	pIC50 (CRBN/DDB1)	DC50 (CK1α)
Cc1cc2c(cc1C)N(C(=O)Nc1ccc3c(c1)CN(C1CCC(=O)NC1=O)C3=O)CC2 (centres unmarked) [Compound 171, N-(2-(2,6-dioxopiperidin-3-yl)-1-oxoisoindolin-5-yl)-5,6-dimethylindoline-1-carboxamide]	6.00 to 7.00	< 0.1 µM
O=C1CCC(N2Cc3cc(NC(=O)N4CC5(CCC5)c5ccccc54)ccc3C2=O)C(=O)N1 (centres unmarked) [Compound 188]	6.00 to 7.00	< 0.1 µM
CC1CN(C(=O)Nc2ccc3c(c2)CN(C2CCC(=O)NC2=O)C3=O)Cc2ccccc21 (centres unmarked) [Compound 191, N-(2-(2,6-dioxopiperidin-3-yl)-1-oxoisoindolin-5-yl)-4-methyl-3,4-dihydroisoquinoline-2(1H)-carboxamide]	6.00 to 7.00	< 0.1 µM
O=C1CCC(N2Cc3cc(NC(=O)N4CC5(CCCC5)c5ccccc54)ccc3C2=O)C(=O)N1 (centres unmarked) [Compound 192, N-(2-(2,6-dioxopiperidin-3-yl)-1-oxoisoindolin-5-yl)spiro[cyclopentane-1,3′-indoline]-1′-carboxamide]	6.00 to 7.00	< 0.1 µM
O=C1CCC(N2Cc3cc(NC(=O)N4CCc5cc(Cl)ccc54)ccc3C2=O)C(=O)N1 (centres unmarked) [Compound 197, 5-chloro-N-(2-(2,6-dioxopiperidin-3-yl)-1-oxoisoindolin-5-yl)indoline-1-carboxamide]	< 6.00	< 0.1 µM
CC(C)C1CN(C(=O)Nc2ccc3c(c2)CN(C2CCC(=O)NC2=O)C3=O)c2ccccc21 (centres unmarked) [Compound 203, N-(2-(2,6-dioxopiperidin-3-yl)-1-oxoisoindolin-5-yl)-3-isopropylindoline-1-carboxamide]	6.00 to 7.00	< 0.1 µM
Cc1cc(C)c2c(c1)N(C(=O)Nc1ccc3c(c1)CN(C1CCC(=O)NC1=O)C3=O)CC2 (centres unmarked) [Compound 209]	6.00 to 7.00	< 0.1 µM
CC1c2ccccc2CCN1C(=O)Nc1ccc2c(c1)CN(C1CCC(=O)NC1=O)C2=O (centres unmarked) [Compound 216, N-(2-(2,6-dioxopiperidin-3-yl)-1-oxoisoindolin-5-yl)-1-methyl-3,4-dihydroisoquinoline-2(1H)-carboxamide]	6.00 to 7.00	< 0.1 µM
O=C1CCC(N2Cc3cc(NC(=O)N4CCOc5ccccc54)ccc3C2=O)C(=O)N1 (centres unmarked) [Compound 285, N-(2-(2,6-dioxopiperidin-3-yl)-1-oxoisoindolin-5-yl)-2H-benzo[b][1,4]oxazine-4(3H)-carboxamide]	6.00 to 7.00	0.1 to 1 µM
CN1CCN(C(=O)Nc2ccc3c(c2)CN(C2CCC(=O)NC2=O)C3=O)c2ccccc21 (centres unmarked) [Compound 286]	6.00 to 7.00	0.1 to 1 µM
C[C@@H]1Cc2ccccc2N1C(=O)Nc1ccc2c(c1F)CN(C1CCC(=O)NC1=O)C2=O (stereo partly drawn) [Compound 289, (2R)—N-(2-(2,6-dioxopiperidin-3-yl)-4-fluoro-1-oxoisoindolin-5-yl)-2-methylindoline-1-carboxamide]	6.00 to 7.00	< 0.1 µM
O=C1CCC(N2Cc3cc(NC(=O)N4CCc5ccc(-n6cccn6)cc54)ccc3C2=O)C(=O)N1 (centres unmarked) [Compound 290]	6.00 to 7.00	< 0.1 µM
O=C1CCC(N2Cc3cc(NC(=O)N4CCc5ccc(C6CC6)cc54)ccc3C2=O)C(=O)N1 (centres unmarked) [Compound 291, 6-cyclopropyl-N-(2-(2,6-dioxopiperidin-3-yl)-1-oxoisoindolin-5-yl)indoline-1-carboxamide]	6.00 to 7.00	< 0.1 µM
O=C1CCC(N2Cc3cc(NC(=O)N4c5ccccc5CC4C(F)(F)F)ccc3C2=O)C(=O)N1 (centres unmarked) [Compound 292, N-(2-(2,6-dioxopiperidin-3-yl)-1-oxoisoindolin-5-yl)-2-(trifluoromethyl)indoline-1-carboxamide]	6.00 to 7.00	< 0.1 µM
C[C@@H]1Cc2ccccc2N1C(=O)Nc1cc2c(cc1F)C(=O)N(C1CCC(=O)NC1=O)C2 (stereo partly drawn) [Compound 293, (2R)—N-(2-(2,6-dioxopiperidin-3-yl)-6-fluoro-1-oxoisoindolin-5-yl)-2-methylindoline-1-carboxamide]	6.00 to 7.00	< 0.1 µM
COC[C@@H]1Cc2cc(C(F)(F)F)ncc2N1C(=O)Nc1ccc2c(c1)CN(C1CCC(=O)NC1=O)C2=O (stereo partly drawn) [Compound 294, (2S)—N-(2-(2,6-dioxopiperidin-3-yl)-1-oxoisoindolin-5-yl)-2-(methoxymethyl)-5-(trifluoromethyl)-2,3-dihydro-1H-pyrrolo[2,3-c]pyridine-1-carboxamide]	6.00 to 7.00	< 0.1 µM
COC[C@H]1Cc2cc(C(F)(F)F)ncc2N1C(=O)Nc1ccc2c(c1)CN(C1CCC(=O)NC1=O)C2=O (stereo partly drawn) [Compound 295, (2R)—N-(2-(2,6-dioxopiperidin-3-yl)-1-oxoisoindolin-5-yl)-2-(methoxymethyl)-5-(trifluoromethyl)-2,3-dihydro-1H-pyrrolo[2,3-c]pyridine-1-carboxamide]	6.00 to 7.00	< 0.1 µM
O=C1CCC(N2Cc3cc(NC(=O)N4c5ccc(C(F)(F)F)cc5CC45COC5)ccc3C2=O)C(=O)N1 (centres unmarked) [Compound 298]	6.00 to 7.00	< 0.1 µM
COCC1c2ccc(C(F)F)cc2CN1C(=O)Nc1ccc2c(c1)CN(C1CCC(=O)NC1=O)C2=O (centres unmarked) [Compound 299, 5-(difluoromethyl)-N-(2-(2,6-dioxopiperidin-3-yl)-1-oxoisoindolin-5-yl)-1-(methoxymethyl)isoindoline-2-carboxamide]	6.00 to 7.00	< 0.1 µM
O=C1CCC(N2Cc3cc(NC(=O)N4c5cccc(F)c5C[C@H]4COCC(F)(F)F)ccc3C2=O)C(=O)N1 (stereo partly drawn) [Compound 300, (2S)—N-(2-(2,6-dioxopiperidin-3-yl)-1-oxoisoindolin-5-yl)-4-fluoro-2-((2,2,2-trifluoroethoxy)methyl)indoline-1-carboxamide]	6.00 to 7.00	< 0.1 µM
COCC1c2cc(C(F)(F)F)ccc2CN1C(=O)Nc1ccc2c(c1)CN(C1CCC(=O)NC1=O)C2=O (centres unmarked) [Compound 301]	6.00 to 7.00	< 0.1 µM
O=C1CCC(N2Cc3cc(NC(=O)N4Cc5cc(C6CC6)ccc5C45COC5)ccc3C2=O)C(=O)N1 (centres unmarked) [Compound 302, 5-cyclopropyl-N-(2-(2,6-dioxopiperidin-3-yl)-1-oxoisoindolin-5-yl)spiro[isoindoline-1,3′-oxetane]-2-carboxamide]	6.00 to 7.00	< 0.1 µM
O=C1CCC(N2Cc3cc(NC(=O)N4c5cccc(F)c5CC45COC5)ccc3C2=O)C(=O)N1 (centres unmarked) [Compound 304, N-(2-(2,6-dioxopiperidin-3-yl)-1-oxoisoindolin-5-yl)-4-fluorospiro[indoline-2,3′-oxetane]-1-carboxamide]	6.00 to 7.00	< 0.1 µM
O=C1CCC(N2Cc3cc(NC(=O)N4c5ccccc5C5CC54)ccc3C2=O)C(=O)N1 (centres unmarked) [Compound 305, N-(2-(2,6-dioxopiperidin-3-yl)-1-oxoisoindolin-5-yl)-1a, 6b-dihydrocyclopropa[b]indole-2(1H)-carboxamide]	6.00 to 7.00	< 0.1 µM
O=C1CCC(N2Cc3cc(NC(=O)N4c5ccc(F)cc5CC45COC5)ccc3C2=O)C(=O)N1 (centres unmarked) [Compound 306, N-(2-(2,6-dioxopiperidin-3-yl)-1-oxoisoindolin-5-yl)-5-fluorospiro[indoline-2,3′-oxetane]-1-carboxamide]	6.00 to 7.00	< 0.1 µM

From patent publication US20250171420A1 (Monte Rosa Therapeutics, Inc., priority 2022, published 2025)
